The values that follow come from patent US20100022766A1, “BIOSYNTHETIC GENE CLUSTER FOR THE PRODUCTION OF A COMPLEX POLYKETIDE” (WYETH, priority 2008, published 2010).

Test [1] has as its system cultured cortical neurons. Description: total neurite length in cultured cortical neurons. The format is cell-based, rat. Particulars: 72 hours. As to the method: Dissociated cortical neuron cultures were prepared as previously described (Pong et al., cited above, 2001). Briefly, embryonic day 15 rat fetuses were collected and dissected in ice-cold PBS. Dissected cortices were pooled together and transferred to an enzymatic dissociation medium containing papain. After 30 minutes, the tissue was mechanically triturated with a fire-polished glass Pasteur pipette. Single-cell suspensions in complete media were seeded on poly-L-ornithine and laminin coated 96-well plates. After 24 hours, cultures were treated with various concentrations of the compound of formula III for 72 hours. The cultures were then fixed and stained with an anti-tubulin primary antibody (TU-1) and a fluorescent-tagged secondary antibody. Neurite outgrowth was determined by using the Enhanced Neurite Outgrowth (ENO) algorithm with the Cellomics ArrayScan and expressed as total neurite length per cell.

Test [2] deals with cultured dorsal root ganglia. Nature of the test: total neurite length in cultured dorsal root ganglia. The format is cell-based, rat. The conditions noted are these: 72 hours. As for the experimental part:
Dissociated dorsal root ganglia cultures were prepared as previously described [A. Wood et al., “Stimulation of neurite outgrowth by immunophilin ligands: quantitative analysis by Cellomics Array scan” Society for Neuroscience (2004), abstract 104.31. Briefly, postnatal day 3-5 rat pups were euthanized. The spinal columns were removed and individual dorsal root ganglia (DRG) were dissected out. Dissected DRG were pooled together and transferred to an enzymatic dissociation medium containing papain. After 60 minutes, the tissue was mechanically triturated with a fire-polished glass Pasteur pipette. Single-cell suspensions in complete media were seeded on poly-L-ornithine and laminin coated 96-well plates. After 24 hours, cultures were treated with various concentrations of the compound of formula III for 72 hours. The cultures were then fixed and stained with an anti-tubulin primary antibody (TUJ-1) and a fluorescent-tagged secondary antibody. Neurite outgrowth was determined by using the Enhanced Neurite Outgrowth (ENO) algorithm with the Cellomics ArrayScan and expressed as total neurite length per cell.

In test [3] the test system is cultured cortical neurons. Description: neurofilament content in cultured cortical neurons. The format is cell-based, rat. The conditions noted are these: 72 hours. As to the method: Dissociated cortical neuron cultures were prepared as previously described [Pong et al., Exp Neurol. 2001 September; 171(1):84-97 (2001)]. Briefly, embryonic day 15 rat fetuses were collected and dissected in ice-cold PBS. Dissected cortices were pooled together and transferred to an enzymatic dissociation medium containing papain. After 30 min, the tissue was mechanically triturated with a fire-polished glass Pasteur pipette. Single-cell suspensions in complete media were seeded on poly-L-ornithine and laminin coated 96-well plates. 24 hours later, cultures were treated with various concentrations of compound of formula (III) for 72 hours. The cultures were then fixed and stained with a neurofilament primary antibody and a peroxidase-tagged secondary antibody. A peroxidase substrate (K-Blue Max) was added and the calorimetric change was measure on a calorimetric plate reader.

The test system of test [4] is cortical neuron cultures. Nature of the test: cortical neuron assay, neurite outgrowth (Cellomics ArrayScan ENO). Particulars: Rattus norvegicus, Cortical neurone, 72 hours treatment. It counts as cell-based. As for the experimental part: Dissociated cortical neuron cultures were prepared as previously described [Pong et al, “Attenuation of staurosporine-induced apoptosis, oxidative stress, and mitochondrial dysfunction by synthetic superoxide dismutase and catalase mimetics, in cultured cortical neurons”, Exp Neurol. 2001 September; 171(1):84-97.] Briefly, embryonic day 15 rat fetuses were collected and dissected in ice-cold PBS. Dissected cortices were pooled together and transferred to an enzymatic dissociation medium containing papain. After 30 min, the tissue was mechanically triturated with a fire-polished glass Pasteur pipette. Single-cell suspensions in complete media were seeded on poly-L-ornithine and laminin coated 96-well plates. Twenty-four hours later, cultures were treated with various concentrations of compound of formula III for 72 hours. The cultures were then fixed and stained with an anti-tubulin antibody (TUJ-1) and a fluorescent-tagged secondary antibody. Neurite outgrowth was determined by using the Enhanced Neurite Outgrowth (ENO) algorithm with the Cellomics ArrayScan and expressed as average neurite length or neurite length per cell

Test [5] has as its system mesencephalic dopanergic neuron cultures. Description: high-affinity 3H-DA uptake in ventral mesencephalic cultures, with or without MPP+ exposure. The format is cell-based, rat. The conditions noted are these: for protection against MPP toxicity: pre-treatment 1 hr or 24 hr, then MPP+ for 1 hr, recovery 24 hr or 48 hr, 3H-DA uptake readout. As for the experimental part: Ventral mesencephalic cultures were prepared from E15 rat embryos and maintained for […] before experimentation according to the method of Pong et al., J Neurochem.
Cultures were then exposed to 10 μM 1-methyl-4-phenylpyridinium (MPP+) for 1 hr, in the presence of drug. After the 1 hr exposure, media was changed 3×, and fresh drug was added for an additional 24 hr or 48 hr.

The target in test [6] is FKBP12 (Homo sapiens, UniProt P62942). The conditions noted are these: cited from earlier work.
Chain of FKBP12 (P62942 whole entry, species assumed): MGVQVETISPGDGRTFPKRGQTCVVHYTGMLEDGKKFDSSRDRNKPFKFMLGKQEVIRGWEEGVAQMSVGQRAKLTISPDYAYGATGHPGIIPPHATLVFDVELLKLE
The conditions of test [7]: cited from earlier work.

With `CC/C1=C\CC(/C(C)=C/C(C)C(C)O)OC(=O)C2CCCCN2C(=O)CC2(O)OC(CCC2C)CC(O)C(C)C(O)CC(O)CC(O)/C(C)=C/C(C)CC(C)C1O` (stereo not drawn) [Example 9, C9-deoxomeridamycin], the “TOTAL NEURITE LENGTH (% ABOVE CONTROL)” value in test [1] (10 nM) turned out to be 10%; in test [1] (100 nM) it was 54%; in test [1] (1 μM), 86%; in test [1] (10 μM), 121%; in test [2] (10 nM), 17%; in test [2] (100 nM) it was 24%. For the same molecule, the figures for the “TOTAL NEURITE LENGTH (% ABOVE CONTROL)” value in test [2] (1 μM) and in test [2] (10 μM) were 36% and 64%, respectively. For the same molecule, the “NEUROFILAMENT CONTENT (FOLD-INCREASE ABOVE CONTROL)” value in test [3] (10 nM) is 1.9 FOLD-INCREASE ABOVE CONTROL; in test [3] (100 nM), 2.19 FOLD-INCREASE ABOVE CONTROL; in test [3] (1 μM) it was 2.24 FOLD-INCREASE ABOVE CONTROL; in test [3] (10 μM) it was 2.29 FOLD-INCREASE ABOVE CONTROL. The EC50 – broadly, the midpoint of the concentration-response curve – in test [4] is below 1000 nM.
As to `CC/C1=C\CC(/C(C)=C/C(C)C(C)O)OC(=O)C2CCCCN2C(=O)C(=O)C2(O)OC(CCC2C)CC(O)C(C)C(O)CC(O)CC(O)/C(C)=C/C(C)CC(C)C1O` (stereo not drawn) [meridamycin, Meridamycin], the “protection against MPP toxicity” value in test [5] is recorded as “partial, but significant protection”. Further, the FKBP12 binding activity result in test [6] was “strong FKBP12 binding activity”. Moreover, in test [7], the “neuroprotective activity in vitro” value was “significant neuroprotective activity in vitro”.

B1: GDNF: glial-derived neurotrophic factor, used as control (protein, UniProt P39905 78-211, looked up)
Glial cell line-derived …: SPDKQMAVLPRRERNRQAAAANPENSRGKGRRGQRGKNRGCVLTAIHLNVTDLGLGYETKEELIFRYCSGSCDAAETTYDKILKNLSRNRRLVSDKVGQACCRPIAFDDDLSFLDDNLVYHILRKHSAKRCGCI
Consider B1, for which the DA uptake result in test [5] (normal cultures, no MPP+) was “enhanced DA uptake”. Also, the “protection against MPP toxicity” value in test [5] was “partial, but significant protection”.
